Drawing on patent US11999739B2, “Antimicrobials methods of making and using the same” (BIOVERSYS AG, priority 2016, dated 2024), this text covers MIC for 43 molecules.

Test [1] deals with Escherichia coli strain ATCC25922. The test is described as follows: Standard microdilution MIC assay, E. coli. In kind it is cell-based. Summed up: (§1)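 MICs obtained by CLSI-standard microdilution, quality-controlled with reference strains in parallel. Values reported as + or − relative to a 16 micrograms/mL cutoff.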
(In general: Dilution methods test growth across graded concentrations, often in twofold steps.)

Test [2] has as its system Staphylococcus aureus (S. aureus) 11540 strain. The test is described as follows: Standard microdilution MIC assay, S. aureus. In kind it is cell-based. The gist of the method:
as §1

Molecules are shown by their SMILES. A value given as a limit tells only on which side of the number the result lay.

In general, MIC refers to the lowest concentration found to suppress growth. A lower MIC goes with a more susceptible organism. As to `C=C[C@@H](CCNC(C)=N)NCc1ccc(-n2cc3cc(-c4cc(CCC[C@@H](N)CC(N)=O)cc(Cl)c4F)[nH]c3nc2=O)cc1` [Compound 157], the MIC in test [1] and in test [2] was not above 16 µg/mL throughout.

As to `CC(=N)NCC[C@@H]1CCC[C@@H](c2ccc(-n3cc4cc(-c5cc(CCC[C@H](C)N)cc(Cl)c5F)[nH]c4nc3=O)cc2F)N1CCCF` [Compound 325], the MIC in test [1] and in test [2] was not above 16 µg/mL each time.

`CC(=N)N[C@@H](C)C[C@@H]1CCC[C@@H](c2ccc(-n3cc4cc(-c5cc(CCC[C@@H](N)C6CC6)cc(Cl)c5F)[nH]c4nc3=O)cc2)N1` [Compound 256]: the MIC in test [1] and in test [2] was not above 16 µg/mL in each case.

In the case of `CC(=N)NCCCN[C@@H](CO)c1ccc(-n2cc3cc(-c4cc(CCC[C@@H](N)C5CC5)cc(Cl)c4F)[nH]c3nc2=O)cc1` [Compound 134], the MIC in test [1] and in test [2] was not above 16 µg/mL in each case.

In the case of `CC(=N)NCC[C@H](CO)NCc1ccc(-n2cc3cc(-c4cc(CCC(F)(F)CN)cc(Cl)c4F)[nH]c3nc2=O)cc1` [Compound 91], the MIC in test [1] and in test [2] was not above 16 µg/mL in each case.

Take `CC(=N)NCCCNCc1ccc(-n2cc3cc(-c4cc(CCC[C@H](C)N)cc(Cl)c4F)[nH]c3nc2=O)cc1F` [Compound 76]: the MIC in test [1] and in test [2] was not above 16 µg/mL throughout.

With `CC(=N)NCC[C@@H]1CCC[C@@H](c2ccc(-n3cc4cc(-c5cc(CCC[C@H](C)N)cc(Cl)c5F)[nH]c4nc3=O)cc2)N1C[C@@H](C)CO` [Compound 365], the MIC in test [1] and in test [2] was not above 16 µg/mL in each case.

As for `C=C[C@H](N)CCCc1cc(Cl)c(F)c(-c2cc3cn(-c4cc(F)c([C@@H]5CCC[C@@H](CCNC(C)=N)N5)c(OC)c4)c(=O)nc3[nH]2)c1` [Compound 320], the MIC in test [1] and in test [2] was not above 16 µg/mL each time.

With `C=C[C@@H](CCNC(=N)CCO)NCc1ccc(-n2cc3cc(-c4cc(CCC[C@H](C)N)cc(Cl)c4F)[nH]c3nc2=O)cc1` [Compound 15], the MIC in test [1] and in test [2] was not above 16 µg/mL throughout.

As to `CC(=N)NCC[C@@H](NCc1ccc(-n2cc3cc(-c4cc(CCC[C@@H](N)CF)cc(Cl)c4F)[nH]c3nc2=O)cc1)C1CC1` [Compound 218], the MIC in test [1] and in test [2] was not above 16 µg/mL in each case.

On to `CC(=N)NCC[C@@H]1CCC[C@@H](c2ccc(-n3cc4cc(-c5cc(CCC[C@H](C)N)cc(Cl)c5F)[nH]c4nc3=O)cc2)N1Cc1cocn1` [Compound 278], for which the MIC in test [1] and in test [2] was not above 16 µg/mL throughout.

`C=C[C@H](N)CCCc1cc(Cl)c(F)c(-c2cc3cn(-c4ccc([C@H](C)N[C@@H](CO)CCNC(C)=N)c(F)c4)c(=O)nc3[nH]2)c1` [Compound 174]: the minimal inhibitory concentration (MIC) in test [1] and in test [2] was not above 16 µg/mL throughout.

Regarding `CC(=N)NCC[C@@H]1CCC[C@@H](c2ccc(-n3cc4cc(-c5cc(CCC[C@H](C)N)cc(Cl)c5F)[nH]c4nc3=O)cc2)N1Cc1c(C)ncn1C` [Compound 288], the minimal inhibitory concentration (MIC) in test [1] and in test [2] was not above 16 µg/mL in each case.

Take `CCCC(=N)NCC[C@@H]1CCC[C@@H](c2ccc(-n3cc4cc(-c5cc(CCC[C@H](C)N)cc(Cl)c5F)[nH]c4nc3=O)cc2)N1` [Compound 352]: the MIC in test [1] and in test [2] was not above 16 µg/mL each time.

Consider `CSc1cc(-n2cc3cc(-c4cc(CCC[C@@H](N)C5CC5)cc(OC(F)(F)F)c4F)[nH]c3nc2=O)ccc1[C@@H]1CCC[C@@H](CCNC(C)=N)N1` [Compound 252], for which the MIC in test [1] and in test [2] was not above 16 µg/mL throughout.

Consider `CSCC(=N)NCC[C@H](CO)NCc1ccc(-n2cc3cc(-c4cc(CCC[C@H](C)N)cc(Cl)c4F)[nH]c3nc2=O)cc1` [Compound 41], for which the MIC in test [1] and in test [2] was not above 16 µg/mL throughout.

On to `CC(=N)NCCCNCc1ccc(-n2cc3cc(-c4cc(CCC(C)(C)CN)cc(Cl)c4F)[nH]c3nc2=O)cc1F` [Compound 73], for which the MIC in test [1] and in test [2] was not above 16 µg/mL throughout.

In the case of `C=C[C@H](N)CCCc1cc(Cl)c(F)c(-c2cc3cn(-c4ccc([C@@H]5CCC[C@@H](CCNC(C)=N)N5)c(S(C)(=O)=O)c4)c(=O)nc3[nH]2)c1` [Compound 272], the MIC in test [1] and in test [2] was not above 16 µg/mL throughout.

For `CSc1cc(-n2cc3cc(-c4cc(CCC[C@@H](N)C5CC5)cc(C(F)(F)F)c4)[nH]c3nc2=O)cc(F)c1[C@@H]1CCC[C@@H](CCNC(C)=N)N1CCCF` [Compound 337], the MIC in test [1] and in test [2] was not above 16 µg/mL throughout.

As for `CC(=N)NCC[C@@H]1CCC[C@@H](c2ccc(-n3cc4cc(-c5ccc(C(F)(F)F)c(CCC[C@H](C)N)c5)[nH]c4nc3=O)cc2)N1` [Compound 287], the MIC in test [1] and in test [2] was not above 16 µg/mL throughout.

Take `C=C[C@H](N)CCCc1cc(Cl)c(F)c(-c2cc3cn(-c4ccc(CN[C@@H](CO)CCNC(C)=N)cc4)c(=O)nc3[nH]2)c1` [Compound 83]: the MIC in test [1] and in test [2] was not above 16 µg/mL throughout.

Consider `CC(=N)NCCCN[C@H](c1ccc(-n2cc3cc(-c4cc(CCC[C@H](C)N)cc(Cl)c4F)[nH]c3nc2=O)cc1)C(F)(F)F` [Compound 130], for which the MIC in test [1] and in test [2] was not above 16 µg/mL throughout.

With `C=C[C@@H](CCNC(C)=N)OCc1ccc(-n2cc3cc(-c4cc(CCC[C@H](C)N)cc(Cl)c4F)[nH]c3nc2=O)cc1` [Compound 3], the MIC in test [1] and in test [2] was not above 16 µg/mL throughout.

Regarding `C=CC(CCNC(=N)CSC)NCc1ccc(-n2cc3cc(-c4cc(CCC[C@H](C)N)cc(Cl)c4F)[nH]c3nc2=O)cc1` (some centres unmarked) [Compound 9], the MIC in test [1] and in test [2] was not above 16 µg/mL throughout.

As for `C=CC(CCNC(C)=N)NCc1ccc(-n2cc3cc(-c4cc(CCC[C@@H](N)CO)cc(Cl)c4F)[nH]c3nc2=O)cc1` (some centres unmarked) [Compound 8], the MIC in test [1] and in test [2] was not above 16 µg/mL each time.

Consider `C=C[C@H](NCCCNC(C)=N)c1ccc(-n2cc3cc(-c4cc(CCC[C@H](C)N)cc(Cl)c4F)[nH]c3nc2=O)cc1` [Compound 161], for which the MIC in test [1] and in test [2] was not above 16 µg/mL throughout.

For `CC(=N)NCC[C@@H]1CCC[C@@H](c2ccc(-n3cc4cc(-c5cc(CCC[C@@H](N)CF)cc(C(F)(F)F)c5F)[nH]c4nc3=O)cc2OC(F)(F)F)N1` [Compound 225], the MIC in test [1] and in test [2] was not above 16 µg/mL each time.

On to `CC(=N)NCC[C@@H]1CCC[C@@H](c2ccc(-n3cc4cc(-c5cc(CCC[C@@H](N)CO)cc(Cl)c5F)[nH]c4nc3=O)cc2)N1C` [Compound 121], for which the minimum inhibitory concentration (MIC) in test [1] and in test [2] was not above 16 µg/mL throughout.

On to `C[C@H](N)CCCc1cc(Cl)c(F)c(-c2cc3cn(-c4ccc([C@@H]5CCC[C@@H](CCNC(=N)CCO)N5)cc4)c(=O)nc3[nH]2)c1` [Compound 357], for which the MIC in test [1] and in test [2] was not above 16 µg/mL throughout.

As to `COC[C@H](N)CCCc1cc(OC(F)(F)F)c(F)c(-c2cc3cn(-c4ccc([C@@H]5CCC[C@@H](CCNC(C)=N)N5)cc4)c(=O)nc3[nH]2)c1` [Compound 195], the MIC in test [1] and in test [2] was not above 16 µg/mL each time.

With `C=C[C@H](N)CCCc1cc(Cl)c(F)c(-c2cc3cn(-c4ccc([C@@H]5COC[C@@H](CCNC(C)=N)N5)cc4)c(=O)nc3[nH]2)c1` [Compound 80], the MIC in test [1] and in test [2] was not above 16 µg/mL each time.

As for `COc1cc(-n2cc3cc(-c4cc(CCC[C@@H](N)C5CC5)cc(Cl)c4F)[nH]c3nc2=O)cc(F)c1[C@@H]1CCC[C@@H](CCNC(C)=N)N1` [Compound 321], the MIC in test [1] and in test [2] was not above 16 µg/mL each time.

As to `COC[C@H](N)CCCc1cc(Cl)c(F)c(-c2cc3cn(-c4ccc([C@@H]5CCC[C@@H](CCNC(C)=N)N5)cc4)c(=O)nc3[nH]2)c1` [Compound 160], the MIC in test [1] and in test [2] was not above 16 µg/mL each time.

For `C=C[C@H](N)CCCc1cc(Cl)c(F)c(-c2cc3cn(-c4ccc([C@H](C)NCCCNC(C)=N)c(F)c4)c(=O)nc3[nH]2)c1` [Compound 111], the MIC in test [1] and in test [2] was not above 16 µg/mL each time.

For the molecule `C=C[C@H](NCCCNC(C)=N)c1ccc(-n2cc3cc(-c4cc(CCC[C@@H](N)COC)cc(OC(F)(F)F)c4F)[nH]c3nc2=O)cc1` [Compound 268], the MIC in test [1] and in test [2] was not above 16 µg/mL throughout.

`CC(=N)NCC[C@@H]1CNC[C@H](c2ccc(-n3cc4cc(-c5cc(CCC[C@H](C)N)cc(Cl)c5F)[nH]c4nc3=O)cc2)N1` [Compound 45]: the MIC in test [1] and in test [2] was not above 16 µg/mL throughout.

As to `CC(=N)NCC[C@@H]1CCC[C@@H](c2ccc(-n3cc4cc(-c5cc(CCC(C)(C)CN)cc(Cl)c5F)[nH]c4nc3=O)cc2)N1` [Compound 24], the MIC in test [1] and in test [2] was not above 16 µg/mL throughout.

With `CC(=N)NCC[C@@H]1CCC[C@@H](c2ccc(-n3cc4cc(-c5cc(CCC(F)(F)CN)cc(Cl)c5F)[nH]c4nc3=O)cc2)N1` [Compound 90], the MIC in test [1] and in test [2] was not above 16 µg/mL in each case.

For `CSc1cc(-n2cc3cc(-c4cc(CCC[C@@H](N)C5CC5)cc(Cl)c4F)[nH]c3nc2=O)ccc1[C@@H]1CCC[C@@H](CCNC(C)=N)N1CCCF` [Compound 333], the MIC in test [1] and in test [2] was not above 16 µg/mL each time.

`C=C[C@H](N)CCCc1cc(Cl)c(F)c(-c2cc3cn(-c4ccc([C@@H]5CCC[C@@H](CCNC(C)=N)N5)cc4)c(=O)nc3[nH]2)c1` [Compound 82]: the MIC in test [1] and in test [2] was not above 16 µg/mL each time.

Turning to `C=CCN(CC[C@@H]1CCC[C@@H](c2ccc(-n3cc4cc(-c5cc(CCC[C@@H](N)CF)cc(Cl)c5F)[nH]c4nc3=O)cc2)N1C)C(C)=N` [Compound 181], the MIC in test [1] and in test [2] was not above 16 µg/mL in each case.

Regarding `CC(=N)NCC[C@@H]1CCC[C@@H](c2ccc(-n3cc4cc(-c5cc(F)c(C(F)(F)F)c(CCC[C@H](C)N)c5)[nH]c4nc3=O)cc2)N1` [Compound 318], the MIC in test [1] and in test [2] was not above 16 µg/mL in each case.

`C=C[C@H](N)CCCc1cc(Cl)c(F)c(-c2cc3cn(-c4ccc([C@@H]5CCC[C@@H](CCNC(C)=N)N5)c(OC)c4)c(=O)nc3[nH]2)c1` [Compound 244]: the MIC in test [1] and in test [2] was not above 16 µg/mL each time.
